The values that follow come from patent EP0286316A1, “1,2,4-Trioxane Derivatives” (Jefford, Charles W., priority 1987, dated 1988).

In test [1] the test system is Plasmodium falciparum chloroquine-resistant clone: Indochina-W2 (IndCh-W2). Briefly: in vitro anti-malarial activity, semiautomated microdilution technique, chloroquine-resistant clone. The conditions noted are these: for I-QHS: index of activity (IC50) relative to Qinghaosu under the same conditions; for I-CHLQ: index of activity (IC50) relative to chloroquine under the same conditions. In kind it is cell-based. The text has this: (§1) Determination of anti-malarial activity of the compounds was effected according to the methods published by R E Desjardins et al and W K Milhous et al (Desjardins, R.E., C.J. Cranfield, D.E. Haynes, and J.D. Chulay. 1979. Quantitative assessment of anitmalarial activity in vitro by a semiautomated microdilution technique. Antimicrob. Agents Chemother. 16:710-718. Milhous, W.K., N.F. Weatherley, J.H. Bowdre, and R.E. Desjardins. 1985. In vitro activities of and mechanisms of resistance to antifol antimalarials. Antimicrob. Agents Chemother. 27:525-530). For such determinations, the following clones of Plasmodium falciparum were used: chloroquine-resistant clone: Indochina-W2 (IndCh-W2) chloroquine-sensitive clone: Sierra Leone-D6 (SL-D6) The activity measured was then compared as indexes under the same conditions to the activity of Qinghaosu (I-QHS) and chloroquine (I-CHLQ), respectively. The indexes (I) provide a measure of the activity of the 1,2,4-trioxane derivatives tested in relation to the activity of the known anti-malarial substances.
Background: In broth dilution the organism is exposed to a series of concentrations in liquid medium.

The subject of test [2] is Plasmodium falciparum chloroquine-sensitive clone: Sierra Leone-D6 (SL-D6). Put plainly: in vitro anti-malarial activity, semiautomated microdilution technique, chloroquine-sensitive clone. In kind it is cell-based. The conditions noted are these: clone S6-D6; for I-QHS: index of activity (IC50) relative to Qinghaosu under the same conditions; for I-CHLQ: index of activity (IC50) relative to chloroquine under the same conditions.
Source text: as §1

The subject of test [3] is mefloquine-resistant clones of Plasmodium falciparum (MEF-W2). Put plainly: in vitro anti-malarial activity, mefloquine-resistant clones. In kind it is cell-based. The conditions noted are these: index of activity (IC50) relative to Qinghaosu; clone MEF-W2.
Source text: as §1
Certain derivatives of 1,2,4-trioxane listed below were tested against mefloquine-resistant clones of Plasmodium falciparum (MEF-W2), according to the method previously cited.

Test [4] has as its system mixed lymphocyte reaction. Put plainly: immunomodulatory activity (in vitro mitogenic assay; mixed lymphocyte reaction). In kind it is cell-based. The method, then:
Several of the compounds mentioned in Examples 1 to 17 were also tested for immunomodulatory activity (in vitro mitogenic assay; mixed lymphocyte reaction).

Test [5] concerns chloroquine-resistant strains of P. falciparum. The conditions noted are these: cited from earlier work.

For the compound `O=C1CCC2(CC1)OO[C@]1(c3ccccc3)CC(c3ccccc3)=C[C@@H]1O2` (racemic) [Compound 17], the I-QHS in test [1] is 2.1; in test [2], 1.06.

Take `C1=C(c2ccccc2)C[C@@]2(c3ccccc3)OOC3(CCC4(CC3)OCCO4)O[C@@H]12` (racemic) [Compound 20]: the values for the I-QHS in test [1] and in test [2] were 0.67 and 0.39, respectively.

As to `CC1(C)OO[C@]2(c3ccccc3)CC(c3ccccc3)=C[C@@H]2O1` [Compound 1], the I-QHS in test [1] is recorded as 0.13; in test [3], 0.15; in test [2] it was 0.18. Besides, the I-CHLQ in test [1] is given as 5.7; in test [2], 0.20.

`CC1(C)OO[C@]2(c3ccccc3)C=C(c3ccccc3)[C@@H](O)[C@@H]2O1` [Compound 2]: the figures for the I-QHS in test [1], in test [3] and in test [2] were 0.12, 0.10 and 0.25, respectively. Moreover, the I-CHLQ stood at 5.4 in test [1] and 0.27 in test [2].

For the compound `C1=C(c2ccccc2)C[C@@]2(c3ccccc3)OOC3(CCCC3)O[C@@H]12` [Compound 4], in test [1], the I-QHS was found to be 2.1 and the I-CHLQ is listed as 12.2. Further, in test [2], the I-QHS is recorded as 0.79 and the I-CHLQ amounted to 0.82.

In the case of `C1=C(c2ccccc2)C[C@@]2(c3ccccc3)OOC3(CCCCC3)O[C@@H]12` [Compound 5], in test [1], the I-QHS came out at 0.26 and the I-CHLQ was 1.5. In test [2], the I-QHS was found to be 0.20 and the I-CHLQ is 0.20.

In test [1], `CC1(C)OO[C@]2(c3ccccc3)C=C(c3ccccc3)[C@@H](OC(=O)c3ccccc3F)[C@@H]2O1` [Compound 7] showed an I-QHS of 0.04 and an I-CHLQ of 1.6. In addition, in test [2], the I-QHS is listed as 0.05 and the I-CHLQ is reported as 0.06.

Turning to `CC(C)OC(=O)O[C@@H]1C(c2ccccc2)=C[C@@]2(c3ccccc3)OOC(C)(C)O[C@@H]12` [Compound 8], the I-QHS is reported as 0.10 in test [1] and 0.16 in test [2]. The I-CHLQ in test [1] is reported as 4.2; in test [2] it was 0.18.

In test [1], `CC1(C)OO[C@]2(c3ccccc3)C=C(c3ccccc3)C(=O)[C@@H]2O1` [Compound 9] came in with an I-QHS of 0.08 and an I-CHLQ of 3.5. In test [2], this compound showed an I-QHS of 0.20 and an I-CHLQ of 0.21.

In test [1], `CC(C)CC(=O)O[C@@H]1C(c2ccccc2)=C[C@@]2(c3ccccc3)OOC(C)(C)O[C@@H]12` [Compound 10] returned an I-QHS of 0.04 and an I-CHLQ of 1.7. Besides, in test [2], the I-QHS is given as 0.09 and the I-CHLQ is listed as 0.10.

Consider `O[C@@H]1C(c2ccccc2)=C[C@@]2(c3ccccc3)OOC3(CCCC3)O[C@@H]12` [Compound 11], for which the I-QHS in test [1] came out at 4.7; in test [2], 1.85. In addition, the I-CHLQ turned out to be 73.8 in test [1] and 1.16 in test [2].

Turning to `C1=C(c2ccccc2)C[C@@]2(c3ccccc3)OOC3(CCOCC3)O[C@@H]12` [Compound 12], in test [1], the I-QHS was determined as 18.7 and the I-CHLQ was 295.3. Moreover, the immunomodulatory activity entry in test [4] is “most important activity”. In test [2], this compound yielded an I-QHS of 1.10 and an I-CHLQ of 0.67.

With `OO[C@@H]1C(c2ccccc2)=C[C@@]2(c3ccccc3)OOC3(CCCCC3)O[C@@H]12` [Compound 13], in test [1], the I-QHS was determined as 2.2 and the I-CHLQ was 33.9. For the same compound, in test [2], the I-QHS was 1.47 and the I-CHLQ was 0.93.

For `O=C1C(c2ccccc2)=C[C@@]2(c3ccccc3)OOC3(CCCCC3)O[C@@H]12` [Compound 15], the results for the I-QHS in test [1] and in test [2] were 3.5 and 1.93, respectively.

Take `O[C@@H]1C(c2ccccc2)=C[C@@]2(c3ccccc3)OOC3(CCCCC3)O[C@@H]12` [Compound 16]: the I-QHS in test [1] was 1.6; in test [2], 0.49.

Turning to `CCOC(=O)CCCC1(C)OO[C@]2(c3ccccc3)CC(c3ccccc3)=C[C@@H]2O1` (stereo partly drawn) [Compound 18], the I-QHS is recorded as 0.09 in test [1] and 0.28 in test [2].

Consider `CCC1(C)OO[C@]2(c3ccccc3)CC(c3ccccc3)=C[C@@H]2O1` (stereo partly drawn) [Compound 21], for which the I-QHS stood at 0.075 in test [1] and 0.36 in test [2].

Turning to `C[C@@H]1CC[C@H]2[C@@H](C)C(=O)O[C@@H]3O[C@@]4(C)CC[C@@H]1[C@]32OO4` [Qinghaosu], in test [5], the “activity against chloroquine-resistant strains of P. falciparum” value was “remarkably active”.
